The results in this text go back to patent publication US9592300B2, “Methods of using redox-active surfactants to control polymer interactions” (WISCONSIN ALUMNI RESEARCH FOUNDATION, priority 2005, dated 2017).

Like-named read-outs stand apart in the source and are kept apart here.

Data set [1] in a line: Critical micelle concentration (CMC) in 0.1M Li2SO4. The format is physicochemical.
The format of data set [2] is physicochemical. The conditions noted are these: for cloud point: 0.1 wt % EHEC, 0.1M Li2SO4. As for the experimental part: Surfactant-ethyl(hydroxylethyl) cellulose (EHEC) interactions were characterized by observing the clouding temperature of solutions of EHEC containing various concentrations of surfactant.
Sample Preparation. Three samples of each solution were prepared to assess reproducibility. […] The EHEC solution was filtered through 0.22 μm GV Millipore filter, placed under vacuum for 30-45 minutes, then bubbled with argon for another 30-45 minutes. This deaeration procedure was performed for all solutions, including solutions of DTAB.
The solutions of polymer, salt, and surfactant were then mixed to form 0.1 wt % EHEC, 0.1M Li2SO4, and the desired concentration of surfactant. These solutions were deaerated three times and bubbled with argon inside airtight containers. These solutions were stored at 25° C. and measured after 3 hours and 1 day.
They were simply filtered, mixed to the desired concentrations, and stored for one day before measurements of cloud points and light scattering were performed.
Cloud Point Measurements. Solution of EHEC and surfactant were immersed in a temperature bath controlled to within 0.1° C. The temperature was increased by 1° C. every 10 minutes and the solutions were visually inspected for clouding. […] The values reported in this study are based on clouding points measured upon increasing the temperature of the solutions.

Data set [3] is described as follows: Dynamic light scattering of surfactant micelles (no polymer). The format is physicochemical. The conditions noted are these: 0.1M Li2SO4, no polymer, […]° C., center-of-mass diffusion of spheres (200 mmolal DTAB; 25 mmolal reduced FTMA).

Compound `CCCCCCCCCCCC[N+](C)(C)C.[Br-]` [DTAB, dodecyltrimethyl ammonium bromide] came in with a CMC in data set [1] of 10 mM. Further, the “clouding temperature compared to solutions free of DTAB” value in data set [2] (1 mM DTAB) was “not measurably lowered”. Besides, the “lowering of clouding temperature of EHEC solutions” value in data set [2] (5 mmolal DTAB (from 32° C. to 26° C.)) turned out to be 6 °C. Further, the cloud point in data set [2] (5 mmolal DTAB) is 26-27 °C; in data set [2] (DTAB concentrations near its CMC (10 mM)) it was 14±0.3 °C. Moreover, the “hydrodynamic diameter of micelles” value in data set [3] is reported as 4 nm.
